# Test results: patent publication US12312359B2 (Vitae Pharmaceuticals, LLC, priority 2016, dated 2025)
# Columns and labels:
# [1] = test system: human acute monocytic leukemia cell line MV-4-11; assay: Assay 2: cell proliferation assay (ATP quantitation, CellTiter-Glo), MV-4-11; type: cell-based; details: MV-4-11 cells
# Summary of the method: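 Read-out is CellTiter-Glo luminescence quantifying ATP. Compound exposure lasted 72 h at 37° C., 5% CO2, with 1.67×10^4 MV-4-11 cells per well in 10% FBS medium, alongside HL-60 toxicity-control cells.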
# [2] = biological target: T1, biotinylated wild-type menin and MLL-AF9 fusion protein (menin/MLL binding) (Homo sapiens, UniProt O00255); assay: Assay 1: menin/MLL binding AlphaLISA assay, wild-type menin; details: Table 30; column head does not say wild-type or mutated menin
# T1 construct: made in house; host or cells: menin: E. coli; MLL-AF9-FLAG: HEK293 cells, used as cleared lysate
# T1 sequence (O00255 1-610): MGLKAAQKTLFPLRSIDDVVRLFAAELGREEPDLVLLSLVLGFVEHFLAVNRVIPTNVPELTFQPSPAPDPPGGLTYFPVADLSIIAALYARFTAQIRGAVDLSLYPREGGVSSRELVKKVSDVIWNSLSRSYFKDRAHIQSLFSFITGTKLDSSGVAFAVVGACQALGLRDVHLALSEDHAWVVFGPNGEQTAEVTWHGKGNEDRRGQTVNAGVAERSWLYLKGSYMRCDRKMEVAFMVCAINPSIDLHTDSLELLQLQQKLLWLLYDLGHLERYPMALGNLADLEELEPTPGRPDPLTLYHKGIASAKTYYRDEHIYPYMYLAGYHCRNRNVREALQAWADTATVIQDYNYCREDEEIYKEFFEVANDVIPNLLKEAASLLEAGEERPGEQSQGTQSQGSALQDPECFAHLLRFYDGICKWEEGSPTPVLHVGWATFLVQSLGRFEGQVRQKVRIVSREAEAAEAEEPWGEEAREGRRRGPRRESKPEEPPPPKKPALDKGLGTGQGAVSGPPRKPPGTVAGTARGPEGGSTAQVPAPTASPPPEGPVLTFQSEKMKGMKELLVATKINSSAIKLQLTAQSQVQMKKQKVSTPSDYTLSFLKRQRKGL
# Summary of the method: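 Compound was preincubated 30 min at room temperature with biotinylated menin (5 nM) and MLL-AF9-FLAG lysate from HEK293 cells, pH 7.4 buffer with 5% DMSO and DTT. Bead-based Alpha signal after 60 min with streptavidin donor and anti-FLAG acceptor beads; four-parameter logistic fit gave IC50.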
Structure (SMILES),"EC50 ([1]; Homo sapiens, MV4-11, 72 h) [nM]",IC50 [2] [nM],EC50 ([1]; 72 h) [nM]
"N#Cc1ccc(-c2cc(F)cc(F)c2Oc2cncnc2N2CCC3(CCN(Cc4ccc5[nH]c(=O)[nH]c5c4)C3)C2)c(C2CC2)c1 (centres unmarked) [Example 52, 2-cyclopropyl-3′,5′-difluoro-2′-((4-(7-((2-oxo-2,3-dihydro-1H-benzo[d]imidazol-5-yl)methyl)-2,7-diazaspiro[4.4]nonan-2-yl)pyrimidin-5-yl)oxy)-[1,1′-biphenyl]-4-carbonitrile]",,< 100,< 100
"O=c1[nH]c2ccc(CN3CCC4(CCN(c5ncncc5Oc5ccc(F)cc5OCC5CC5)C4)C3)cc2[nH]1 (centres unmarked) [Example 54, 5-((7-(5-(2-(cyclopropylmethoxy)-4-fluorophenoxy)pyrimidin-4-yl)-2,7-diazaspiro[4.4]nonan-2-yl)methyl)-1,3-dihydro-2H-benzo[d]imidazol-2-one]",100 to 1000,< 100,
"CC(C)N(C)C(=O)c1cc(F)ccc1Oc1cncnc1N1CCC2(CCN(Cc3ccc(N4CCOC4=O)cc3)C2)C1 (centres unmarked) [Example 62, 5-fluoro-N-isopropyl-N-methyl-2-((4-(7-(4-(2-oxooxazolidin-3-yl)benzyl)-2,7-diazaspiro[4.4]nonan-2-yl)pyrimidin-5-yl)oxy)benzamide]",,< 100,100 to 1000
"CC(C)c1ncncc1-c1cc(F)ccc1Oc1cncnc1N1CC2(CN(CC3CCC4(CC3)OCCO4)C2)C1 [Example 64, 2-(1,4-dioxaspiro[4.5]decan-8-ylmethyl)-6-(5-(4-fluoro-2-(4-isopropylpyrimidin-5-yl)phenoxy)pyrimidin-4-yl)-2,6-diazaspiro[3.3]heptane]",100 to 1000,< 100,
"CC(C)c1ncncc1-c1cc(F)ccc1Oc1cncnc1N1CC2(CN(CC3CCC(O)CC3)C2)C1 (centres unmarked) [Example 65, 4-((6-(5-(4-fluoro-2-(4-isopropylpyrimidin-5-yl)phenoxy)pyrimidin-4-yl)-2,6-diazaspiro[3.3]heptan-2-yl)methyl)cyclohexanol]",100 to 1000,< 100,
"COC(C)c1ccccc1-c1cc(F)ccc1Oc1cncnc1N1CC2(CN(CC3CCOCC3)C2)C1 (centres unmarked) [Example 67, 2-(5-((5-fluoro-2′-(1-methoxyethyl)-[1,1′-biphenyl]-2-yl)oxy)pyrimidin-4-yl)-6-((tetrahydro-2H-pyran-4-yl)methyl)-2,6-diazaspiro[3.3]heptane]",100 to 1000,< 100,
"NC1Cc2ccc(-c3cc(F)ccc3Oc3cncnc3N3CC4(CN(CC5CCOCC5)C4)C3)cc2C1 (centres unmarked) [Example 68, 5-(5-fluoro-2-((4-(6-((tetrahydro-2H-pyran-4-yl)methyl)-2,6-diazaspiro[3.3]heptan-2-yl)pyrimidin-5-yl)oxy)phenyl)-2,3-dihydro-1H-inden-2-amine]",≥ 1000,< 100,
"O=c1[nH]c2ccc(CN3CCC4(CCN(c5ncncc5Oc5ccc(F)cc5CN5CCOCC5)C4)C3)cc2[nH]1 (centres unmarked) [Example 70, 5-((7-(5-(4-fluoro-2-(morpholinomethyl)phenoxy)pyrimidin-4-yl)-2,7-diazaspiro[4.4]nonan-2-yl)methyl)-1H-benzo[d]imidazol-2(3H)-one]",< 100,< 100,
"CC(C)n1nc(C(F)(F)F)cc1-c1cc(F)ccc1Oc1cncnc1N1CC2(CN(CC3(O)CCCCC3)C2)C1 [Example 72, 1-((6-(5-(4-fluoro-2-(1-isopropyl-3-(trifluoromethyl)-1H-pyrazol-5-yl)phenoxy)pyrimidin-4-yl)-2,6-diazaspiro[3.3]heptan-2-yl)methyl)cyclohexan-1-ol]",100 to 1000,< 100,
"CC(C)C(=O)N(CC(N)=O)c1cc(F)ccc1Oc1cncnc1N1CCC2(CCN(Cc3ccc4[nH]c(=O)[nH]c4c3)C2)C1 (centres unmarked) [Example 73, N-(2-amino-2-oxoethyl)-N-(5-fluoro-2-((4-(7-((2-oxo-2,3-dihydro-1H-benzo[d]imidazol-5-yl)methyl)-2,7-diazaspiro[4.4]nonan-2-yl)pyrimidin-5-yl)oxy)phenyl)isobutyramide]",100 to 1000,< 100,
"Cn1c(-c2cc(F)ccc2Oc2cncnc2N2CC3(CCN(C[C@H]4CC[C@H](NC(=O)C(F)(F)F)CC4)CC3)C2)c(C2CC2)ccc1=O [Example 79, N-((1r,4r)-4-((2-(5-(2-(3-cyclopropyl-1-methyl-6-oxo-1,6-dihydropyridin-2-yl)-4-fluorophenoxy)pyrimidin-4-yl)-2,7-diazaspiro[3.5]nonan-7-yl)methyl)cyclohexyl)-2,2,2-trifluoroacetamide]",< 100,< 100,
"Cn1c(-c2cc(F)ccc2Oc2cncnc2N2CC3(CCN(CC4CCC(NS(C)(=O)=O)CC4)CC3)C2)c(C2CC2)ccc1=O (centres unmarked) [Example 80, N-(4-((2-(5-(2-(3-cyclopropyl-1-methyl-6-oxo-1,6-dihydropyridin-2-yl)-4-fluorophenoxy)pyrimidin-4-yl)-2,7-diazaspiro[3.5]nonan-7-yl)methyl)cyclohexyl) methanesulfon-amide]",< 100,< 100,
"N[C@H]1CC[C@H](CCN2CC3(C2)CN(c2ncncc2Oc2ccc(F)cc2-c2cccnc2C2CC2)C3)CC1 [Example 82, (1r,4r)-4-(2-(6-(5-(2-(2-cyclopropylpyridin-3-yl)-4-fluorophenoxy)pyrimidin-4-yl)-2,6-diazaspiro[3.3]heptan-2-yl)ethyl)cyclohexan-1-amine]",100 to 1000,< 100,

# Results, then the molecule that gave them:
"EC50 ([1]; Homo sapiens, MV4-11, 72 h) [nM]",IC50 [2] [nM],EC50 ([1]; 72 h) [nM],Structure (SMILES)
100 to 1000,< 100,,"CC(C)c1ccccc1-c1cc(F)c(F)cc1Oc1cncnc1N1CCC2(CCN(Cc3ccc4[nH]c(=O)[nH]c4c3)C2)C1 (centres unmarked) [Example 47, 5-((7-(5-((4,5-difluoro-2′-isopropyl-[1,1′-biphenyl]-2-yl)oxy)pyrimidin-4-yl)-2,7-diazaspiro[4.4]nonan-2-yl)methyl)-1H-benzo[d]imidazol-2(3H)-one]"
,< 100,100 to 1000,"Cc1cc(C#N)ccc1-c1cc(F)ccc1Oc1cncnc1N1CCC2(CCN(Cc3ccc4[nH]c(=O)[nH]c4c3)C2)C1 (centres unmarked) [Example 48, 5′-fluoro-2-methyl-2′-((4-(7-((2-oxo-2,3-dihydro-1H-benzo[d]imidazol-5-yl)methyl)-2,7-diazaspiro[4.4]nonan-2-yl)pyrimidin-5-yl)oxy)-[1,1′-biphenyl]-4-carbonitrile]"
< 100,< 100,,"Cc1cc(C#N)cc(C)c1-c1cc(F)ccc1Oc1cncnc1N1CCC2(CCN(Cc3ccc4[nH]c(=O)[nH]c4c3)C2)C1 (centres unmarked) [Example 51, 5′-fluoro-2,6-dimethyl-2′-((4-(7-((2-oxo-2,3-dihydro-1H-benzo[d]imidazol-5-yl)methyl)-2,7-diazaspiro[4.4]nonan-2-yl)pyrimidin-5-yl)oxy)-[1,1′-biphenyl]-4-carbonitrile]"
< 100,< 100,,"CC(C)c1nccn1-c1cc(F)ccc1Oc1cncnc1N1CCC2(CCN(Cc3ccc4[nH]c(=O)[nH]c4c3)C2)C1 (centres unmarked) [Example 53, 5-((7-(5-(4-fluoro-2-(2-isopropyl-1H-imidazol-1-yl)phenoxy)pyrimidin-4-yl)-2,7-diazaspiro[4.4]nonan-2-yl)methyl)-1H-benzo[d]imidazol-2(3H)-one]"
100 to 1000,< 100,,"CC(O)c1ccccc1-c1cc(F)ccc1Oc1cncnc1N1CCC2(CCN(Cc3ccc4[nH]c(=O)[nH]c4c3)C2)C1 (centres unmarked) [Example 60, 5-((7-(5-((5-fluoro-2′-(1-hydroxyethyl)-[1,1′-biphenyl]-2-yl)oxy)pyrimidin-4-yl)-2,7-diazaspiro[4.4]nonan-2-yl)methyl)-1H-benzo[d]imidazol-2(3H)-one]"
< 100,< 100,,"CC(C)(O)c1ccccc1-c1cc(F)ccc1Oc1cncnc1N1CCC2(CCN(Cc3ccc4[nH]c(=O)[nH]c4c3)C2)C1 (centres unmarked) [Example 63, 5-((7-(5-((5-fluoro-2′-(2-hydroxypropan-2-yl)-[1,1′-biphenyl]-2-yl)oxy)pyrimidin-4-yl)-2,7-diazaspiro[4.4]nonan-2-yl)methyl)-1H-benzo[d]imidazol-2(3H)-one]"
< 100,< 100,,"CC(CO)c1ccccc1-c1cc(F)ccc1Oc1cncnc1N1CCC2(CCN(Cc3ccc4[nH]c(=O)[nH]c4c3)C2)C1 (centres unmarked) [Example 69, 5-((7-(5-((5-fluoro-2′-(1-hydroxypropan-2-yl)-[1,1′-biphenyl]-2-yl)oxy)pyrimidin-4-yl)-2,7-diazaspiro[4.4]nonan-2-yl)methyl)-1H-benzo[d]imidazol-2(3H)-one]"
< 100,< 100,,"CC(C)C(=O)N(C)c1cc(F)ccc1Oc1cncnc1N1CCC2(CCN(Cc3ccc4[nH]c(=O)[nH]c4c3)C2)C1 (centres unmarked) [Example 76, N-(5-fluoro-2-((4-(7-((2-oxo-2,3-dihydro-1H-benzo[d]imidazol-5-yl)methyl)-2,7-diazaspiro[4.4]nonan-2-yl)pyrimidin-5-yl)oxy)phenyl)-N-methylisobutyramide]"
≥ 1000,< 100,,O=c1[nH]c2ccc(CN3CCC4(CCN(c5ncncc5Oc5ccc(F)cc5Cc5ccccc5)C4)C3)cc2[nH]1 (centres unmarked) [Example 77]
